Results published in US20040038855A1 (priority 1999, published 2004).
Where two headings read alike, the source gives them in different places.

Key:
[1] = molecular target: T1, human Histamine H1 receptor (Homo sapiens, UniProt P35367); assay: Binding affinity at the human histamine H1 receptor; conditions: Table 3c; read-out: hH1 Ki
T1 construct: expressed in transfected cells
How it was run: (§1)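 Receptor binding read-out throughout; membranes expressing human D1 or D2 receptor were used for those two targets.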

[2] = molecular target: T2, human Alpha-1a Adrenergic receptor (Homo sapiens, UniProt P35348); assay: Binding affinity at the human alpha-1A adrenergic receptor; conditions: Table 3c; read-out: hAlpha-1a Ki
T2 construct: expressed in transfected cells
T2 sequence (P35348 1-466): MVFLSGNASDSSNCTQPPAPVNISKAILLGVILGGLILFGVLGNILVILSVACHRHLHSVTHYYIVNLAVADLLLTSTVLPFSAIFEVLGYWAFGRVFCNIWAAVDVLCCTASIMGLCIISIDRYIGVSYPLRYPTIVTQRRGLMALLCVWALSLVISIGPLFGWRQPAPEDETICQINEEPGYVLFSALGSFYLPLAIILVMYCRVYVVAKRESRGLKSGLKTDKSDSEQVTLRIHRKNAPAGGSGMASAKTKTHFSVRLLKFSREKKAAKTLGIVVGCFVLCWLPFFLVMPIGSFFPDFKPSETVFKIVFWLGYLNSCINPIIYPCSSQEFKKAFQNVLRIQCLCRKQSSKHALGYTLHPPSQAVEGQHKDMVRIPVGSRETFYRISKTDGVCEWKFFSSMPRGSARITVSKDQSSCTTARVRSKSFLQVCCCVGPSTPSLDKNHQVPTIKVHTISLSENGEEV
How it was run: as §1

[3] = molecular target: T3, human Dopamine D2 receptor (Homo sapiens, UniProt P14416); assay: Binding affinity at the human dopamine D2 receptor; conditions: Table 3c; read-out: hD2 Ki
T3 construct: purchased BioSignal, Inc. (Montreal, Canada)
How it was run: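 Binding to α2A and D5 receptors is run by established receptor-binding procedures; human D1 and D2 binding uses membranes prepared from receptor-expressing cells.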

[4] = molecular target: T4, rat MCH1 receptor (Rattus norvegicus, UniProt P97639); assay: Binding affinity (Ki) at the rat MCH1 receptor
T4 construct: expressed in transfected cells

[5] = Examples 38-141, read-out: Ki (nM) rMCH1

T3 sequence (P14416 whole entry): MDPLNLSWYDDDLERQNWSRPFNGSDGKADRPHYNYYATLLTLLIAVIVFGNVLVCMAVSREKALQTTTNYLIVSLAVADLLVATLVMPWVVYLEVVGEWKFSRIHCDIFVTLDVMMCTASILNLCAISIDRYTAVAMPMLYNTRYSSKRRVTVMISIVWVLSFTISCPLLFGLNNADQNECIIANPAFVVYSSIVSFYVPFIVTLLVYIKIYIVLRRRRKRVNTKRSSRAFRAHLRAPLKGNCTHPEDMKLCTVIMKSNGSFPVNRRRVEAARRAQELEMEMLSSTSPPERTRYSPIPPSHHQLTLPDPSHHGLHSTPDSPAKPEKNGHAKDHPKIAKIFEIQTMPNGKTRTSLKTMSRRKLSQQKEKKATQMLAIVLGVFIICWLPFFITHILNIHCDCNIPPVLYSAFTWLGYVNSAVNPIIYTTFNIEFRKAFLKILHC
T1 sequence (P35367 whole entry): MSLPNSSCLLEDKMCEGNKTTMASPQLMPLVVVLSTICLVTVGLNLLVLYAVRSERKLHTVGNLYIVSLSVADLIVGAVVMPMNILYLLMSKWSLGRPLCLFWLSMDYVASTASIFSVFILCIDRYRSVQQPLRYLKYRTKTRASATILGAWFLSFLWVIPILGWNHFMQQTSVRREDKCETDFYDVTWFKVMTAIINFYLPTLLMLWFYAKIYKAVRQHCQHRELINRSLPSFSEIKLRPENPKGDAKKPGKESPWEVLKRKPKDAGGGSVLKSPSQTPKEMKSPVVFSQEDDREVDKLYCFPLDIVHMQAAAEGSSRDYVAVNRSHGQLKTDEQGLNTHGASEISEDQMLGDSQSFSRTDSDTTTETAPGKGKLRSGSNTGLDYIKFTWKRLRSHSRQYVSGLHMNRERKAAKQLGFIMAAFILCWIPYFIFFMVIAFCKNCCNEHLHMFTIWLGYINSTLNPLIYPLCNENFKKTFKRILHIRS
T4 sequence (P97639 whole entry): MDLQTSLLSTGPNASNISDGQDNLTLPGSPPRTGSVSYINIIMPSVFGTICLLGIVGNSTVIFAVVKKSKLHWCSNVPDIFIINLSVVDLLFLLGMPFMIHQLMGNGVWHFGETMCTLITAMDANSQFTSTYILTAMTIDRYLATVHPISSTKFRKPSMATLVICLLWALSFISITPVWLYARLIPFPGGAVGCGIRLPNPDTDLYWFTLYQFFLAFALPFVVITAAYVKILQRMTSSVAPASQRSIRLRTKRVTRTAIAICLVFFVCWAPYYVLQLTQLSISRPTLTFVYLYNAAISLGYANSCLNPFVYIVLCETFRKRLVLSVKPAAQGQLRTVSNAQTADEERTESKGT

Structure (SMILES) | Ki [1] [nM] | Ki [2] [nM] | Ki [3] [nM] | Ki [4, 5] [nM] | Ki ([4]; Table 3c, read-out: rMCH1 Ki) [nM]
CC(C)C(=O)Nc1cccc(C2CCN(CC[C@@H](Oc3cccc(Cl)c3)c3ccccc3)CC2)c1 [Example 124] | 329 | 204 | 66 | 9.3 | 9.3
CC(C)C(=O)Nc1cccc(C2CCN(CC[C@H](OC(=O)c3cccc4ccccc34)c3ccccc3)CC2)c1 [Example 125] | > 50000 | 232 | 46.6 | 32.5 | 32.5
CC(=O)c1ccccc1O[C@@H](CCN1CCC(c2cccc(NC(=O)C(C)C)c2)CC1)c1ccccc1 [Example 126] | 8000 | 1520 | 1050 | 50 | 50
CC(C)C(=O)Nc1cccc(C2CCN(CC[C@H](Oc3ccccc3F)c3ccccc3)CC2)c1 [Example 127] | 1710 | 226 | 119 | 6.6 | 6.6
CC(=O)Nc1cccc(C2CCN(CCCNC(=O)N3C(=O)OC[C@@H]3c3cc(F)cc(F)c3)CC2)c1 [Example 128] | 33100 | 645 | 41500 | 31.4 | 31.4
CC(=O)Nc1cccc(C2CCN(CCCNC(=O)N3C(=O)OC[C@@H]3c3cc(F)c(F)c(F)c3)CC2)c1 [Example 129] | 6520 | 381 | 41500 | 22.3 | 22.3
CC(=O)Nc1cccc(C2CCN(CCCNC(=O)N3C(=O)OC(C)(C)C3c3ccc(F)c(F)c3)CC2)c1 (centres unmarked) [Example 130] | 1860 | 333 | 39500 | 48.6 | 48.6
CC(=O)Nc1cccc(C2CCN(CCCNC(=O)N3C(=O)O[C@H](C)C3c3ccc(F)c(F)c3)CC2)c1 (some centres unmarked) [Example 131] | 2840 | 2470 | 19000 | 11.8 | 11.8
CC(=O)Nc1cccc(C2CCN(CCCNC(=O)N3C(=O)OCC3Cc3ccc(F)cc3)CC2)c1 (centres unmarked) [Example 132] | 39700 | 11000 | 41500 | 44.6 | 44.6
CC(C)C(=O)Nc1cccc(C2CCN(CC[C@@H](Oc3ccccc3[N+](=O)[O-])c3ccccc3)CC2)c1 [Example 133] | 4180 | 167 | 447 | 25.7 | 25.7
CC(C)C(=O)Nc1cccc(C2CCN(CC[C@@H](Oc3cccc([N+](=O)[O-])c3)c3ccccc3)CC2)c1 [Example 135] | 507 | 722 | 244 | 19.4 | 19.4
CCOc1ccccc1O[C@@H](CCN1CCC(c2cccc(NC(=O)C(C)C)c2)CC1)c1ccccc1 [Example 136] | 9790 | 620 | 833 | 14.3 | 14.3
CC(=O)c1cccc(O[C@@H](CCN2CCC(c3cccc(NC(=O)C(C)C)c3)CC2)c2ccccc2)c1 [Example 141] | 3820 | 3020 | 2450 | 3.2 | 3.2
